Tests used:
[1] = literature: Wilson, O'Connor et al. 2010; cited from earlier work
IMR90 ER:RAS cells = test: Senolytic activity under IRE1 inhibition with KIRA6; type: cell-based, human; settings: 600 nM KIRA6 from day 4 post-induction; Compound 1 or 2 from day 7; read at day 12; FIGS. 15A-B
Method: High-throughput microscopy survival assay—To assess senolytic effect of drugs, cells were cultured for 7 days, culture media was changed to DM0.5 media and drugs in DMSO were added (<5% v/v final concentration), drugs were replenished after 3 days if assay length was longer than 72 h. Wells were fixed in 4% PFA for 1 hour at day 10 to 14, washed 3 times with PBS and then stained with 1 μg/mL DAPI (w/v, PBS) for 10 minutes. Wells were then washed 3 times with PBS. Optionally plates could be stored at 4° C. for up to 2 weeks and DAPI stained. Image acquisition of DAPI stained cells was performed on an automated InCell Analyser 2000 (GE Healthcare®) and high-content analysis on the InCell Investigator 2.7.3 software used to quantify number of DAPI positive cells per well. A top-hat method was used to segment cell-nuclei based on DAPI stained area and a minimum nuclear area threshold of 80 μm used to exclude debris. For cancer cell lines, nuclear area threshold was reduced to 40 μm. Survival was measured as cell counts relative to DMSO treated quiescent or senescent cells.
To investigate whether the activation of UPR caused by NMT inhibition in senescent cells was responsible for the senolytic potential of NMT inhibitors, cells were treated with KIRA6, a selective inhibitor of IRE1, a kinase necessary for the UPR. IMR90 ER:RAS cells undergoing senescence (after induction with 4OHT), were treated with 600 nM KIRA6 (an IRE1 inhibitor) on day 4 post-induction. On day 7 post-induction, cells were treated with Compound 1 or 2 and 600 nM KIRA6. […] Both NMT inhibitor and Kira6 were replenished 3 days after addition of NMT inhibitor (at day 10 post-induction). Data is shown as mean±SD, n represents independent biological experiments.

HCT116 = test: Senescence induction by chemotherapeutic drugs (BrdU, SA-β-Galactosidase, p21CIP1); type: cell-based, human; settings: 7 days after treatment, doxorubicin 100 nM, etoposide 2 μM, cisplatin 100 μM; for BrdU incorporation (cell division): FIG. 6A; for SA-β-Galactosidase activity / p21^CIP1 expression: FIGS. 6B-C
Method: (§1) IMR90 cells were used to generate inducible ER:RAS (hereinafter iRAS) cells to model Oncogene induced senescence (OIS), through retroviral infection of pLNC-ER:RAS-neo into IMR90 cells followed by selection with Neomycin. IMR90 cells containing the pLNC-ER:RAS plasmid backbone pLXSN were infected in parallel to assess leakiness in the pLNC-ER:RAS system. Treatment with 100 nM 4OHT (Sigma, in DMSO) was used to induce IMR90 ER:RAS cells to undergo oncogene induced senescence (OIS). Therapy induced senescence (TIS) was induced in IMR90 cells by treatment with 33 μM (50 ug/ml) bleomycin sulphate (Generon, HY-17565) for 24 hours, 20 μM palbociclib (Selleckchem, S1116) for 7 days or 100 nM doxorubicin (Cayman chemical, 15007) for 7 days. Senescence was induced in SK-HEP-1 cells by treatment with 2 μM etoposide (Sigma-Aldrich, E1383) for 7 days (FIGS. 4A-C). HCT-116 senescence was induced by 250 nM treatment with doxorubicin (Cayman chemical, 15007) for 48 hours followed by 5 days culture in media without chemotherapy (FIG. 5), or by treatment with 100 nM doxorubicin, 2 μM etoposide or 100 μM cisplatin for 3 days followed by 4 days culture in media without chemotherapy (FIGS. 6A-7C). Senescence was induced in MCF7 by 200 nM treatment with doxorubicin for 7 days, 2 μM etoposide for 7 days or 10 μM cisplatin for 7 days (FIGS. 8A-9C).
(§2) BrdU Incorporation—Cell proliferation was assessed through incorporation of nucleotide analogue 5-Bromo-2′-deoxyuridine (BrdU) into cells. 2×10^3 or 8×10^3 IMR90 cells were seeded into 96-well plates in duplicate for DMSO/palbociclib treated and bleomycin/doxorubicin treated cells respectively. 10 μM BrdU was added to cells 18 h before desired time point and wells were then washed in PBS and fixed using 4% paraformaldehyde (w/v, PBS) for 45 minutes to 1 hour before removal and washing 3 times with PBS. BrdU incorporation was assessed via immunofluorescence and high-content analysis (see section ‘Immunofluorescence & High throughput microscopy’).
(§3) Immunofluorescence staining was carried out by first fixing wells of 96 well plate at desired timepoint for 1 hour using 4% PFA (w/v, in PBS) followed by washing 3 times with PBS. Wells were then permeabilized using 0.2% Triton® X-100 (v/v, PBS) for 10 min or with 0.5% Triton® X-100 (v/v, PBS) for COPI staining. Wells were then washed twice with PBS to halt permeabilization and then non-specific antibody binding blocked by incubation with a blocking solution for 1 hour at RT. Blocking solution contained 1% BSA (w/v, PBS) supplemented with 0.4% Fish Skin Gelatin (v/v, PBS). Primary antibodies were diluted in respective blocking solution (see ‘Antibodies’ for dilutions), blocking solution removed from well and incubated with primary antibody solution for 1 hour at RT. For BrdU staining primary antibody solution is supplemented with 0.5 U/ul DNase (Sigma) and 1 mM MgCl2 and incubation times reduced to 30 minutes. Following incubation, primary antibody was then removed by washing 3 times with PBS. Secondary antibodies conjugated to Alexa-594 or Alexa-488 fluorophores were then diluted in blocking solution added to wells to be incubated in dark for 1 hour. Secondary antibody was then removed by washing 3 times with PBS and nuclei counterstaining with 1 μg/mL DAPI (w/v, PBS) for 10 minutes. Wells were then washed with PBS three times.
(§4) In a second experiment, HCT116 were treated with doxorubicin, etoposide or cisplatin (to induce senescence) or DMSO (as a control). 7 days after treatment, BrdU incorporation (to assess cell division), SA-β-Galactosidase activity and p21^CIP1 expression (as markers of senescence) were analysed. […] Media and compounds were replenished after 72 h of treatment and cultured for 48 h more before fixation and measurement of survival via high-throughput microscopy. DMSO/Doxorubicin/Etoposide (n=4), Cisplatin (n=1).

MCF7 cancer cells = test: as above; type: cell-based; settings: 7 days after treatment, doxorubicin 200 nM, etoposide 2 μM, cisplatin 10 μM; for BrdU incorporation (cell division): FIG. 8A; for SA-β-Galactosidase activity / p21^CIP1 expression: FIGS. 8B-C
Method: as §1, §2, §3
as §4, with “MCF7 cancer cells” for “In a second experiment, HCT116”, “treatment, analysed” for “treatment,”, “(n=3),” for “(n=4),”, “(n=2).” for “(n=1).”

SMILES	Side effects [1]	Effect of KIRA6 on the senolytic activity of NMT inhibitors (IMR90 ER:RAS cells)	BrdU incorporation (cell division) (HCT116)	SA-β-Galactosidase activity (HCT116)	p21^CIP1 expression (HCT116)	BrdU incorporation (cell division) (MCF7 cancer cells)	SA-β-Galactosidase activity (MCF7 cancer cells)	p21^CIP1 expression (MCF7 cancer cells)
CC1(C)CCC(c2ccc(Cl)cc2)=C(CN2CCN(c3ccc(C(=O)NS(=O)(=O)c4ccc(N[C@H](CCN5CCOCC5)CSc5ccccc5)c(S(=O)(=O)C(F)(F)F)c4)cc3)CC2)C1 [ABT-263]	significant neutropenia and thrombocytopenia							
CC(C)(C)c1nc(-c2ccc(NC(=O)Nc3cccc(C(F)(F)F)c3)c3ccccc23)c2c(N)nccn12 [KIRA6, reference compound]		prevented the senolytic activity of NMT inhibitors						
N.N.[Cl][Pt][Cl] [cisplatin]			stopped proliferating	upregulated	upregulated	stopped proliferating	upregulated	upregulated
COc1cccc2c1C(=O)c1c(O)c3c(c(O)c1C2=O)C[C@@](O)(C(=O)CO)C[C@@H]3O[C@H]1C[C@H](N)[C@H](O)[C@H](C)O1 [doxorubicin]			stopped proliferating	upregulated	upregulated	stopped proliferating	upregulated	upregulated
COc1cc([C@@H]2c3cc4c(cc3[C@@H](O[C@@H]3O[C@@H]5CO[C@@H](C)O[C@H]5[C@H](O)[C@H]3O)[C@H]3COC(=O)[C@H]23)OCO4)cc(OC)c1O [etoposide]			stopped proliferating	upregulated	upregulated	stopped proliferating	upregulated	upregulated

From patent publication US12691100B2, “NMT inhibitor treatment of a senescence-associated disease or disorder of the liver” (Imperial College Innovations Limited, priority 2020, dated 2026)
